Publication PMC12814185, “Receptor-Mediated Shuttling of a D‑Amino Acid Peptide Achieves High Nanomolar Cytosolic Concentrations” (Journal of the American Chemical Society, 2025)
Where a SMILES comes first, the peptide text is derived from it. Bridges are numbered along the chain shown (N, C = ends). Roman numbers before positions name the chains, in order. Triazole bridges read from a SMILES are 1,4-linked. Where no end group is shown, it is not given here. Side-chain parts run from the residue outwards. [ ]: non-standard residue; d: D form. The star is where a group is joined. X2 = CN1C(=C/C=C/C=C/C2=[N+](CCCCCC(=O)*)c3ccc(S(=O)(=O)[O-])cc3C2(C)C)C(C)(C)c2cc(S(=O)(=O)O)ccc21; X1 = CN1C(=CC=CC=CC2=[N+](CCCCCC(=O)*)c3ccc(S(=O)(=O)[O-])cc3C2(C)C)C(C)(C)c2cc(S(=O)(=O)O)ccc21; Lys(N3) = [N-]=[N+]=NCCCC[C@H](N)C(=O)O; Cit = NC(=O)NCCC[C@H](N)C(=O)O; d(hCys) = N[C@H](CCS)C(=O)O; PEG3 = NCCOCCOCCOCCC(=O)O; Pra = C#CC[C@H](N)C(=O)O

Key:
[1] = test system: HEK293_CMKLR1-eYFP cells; assay: Resazurin based cell viability assay, peptides; settings: 72 h incubation
Method: page 3: […] 15% FCS. Calcium flux assay Calcium flux assay was performed with cells expressing CMKLR1 and the chimeric G protein […]. The stably transfected COS-7_CMKLR1-eYFP_ […] were seeded at 25,000 cells per well into poly-ᴅ-lysine-coated 96-well plates (black μCLEAR, Greiner). The next day, cells were incubated with […] (Sigma), 20 mM 4-(2-hydroxyethyl)-1-piperazineethanesulfonic acid (HEPES, Sigma) in Hanks' Balanced […] This solution was replaced by assay buffer, and basal Ca2+ signal (λex = 485 nm, λem = 525 nm) was measured for 20 s with a Flexstation 3 plate reader (Molecular Devices). Peptide dilutions were added, and the Ca2+ response was measured for 40 s. The maximum signal over baseline was calculated and normalized to peptide 1 (N3-cC9). Non-linear regression was performed using Prism 10 (GraphPad). Experiments were performed in technical duplicates and at least twice. Cell viability assay HEK293 and HEK293_CMKLR1-eYFP cells were seeded at 15,000 cells per well into poly-ᴅ-lysine coated 96-well plates (black μCLEAR, Greiner). […] Cells were then washed and a resazurin-based cell viability assay was performed. […] (1:1) + 15% FBS without phenol red was added to the cells. […] using the fluorescence of resorufin (λex = 550 nm, λem = 595 nm). Data was normalized to cells incubated without peptide (100%) and cells treated with ethanol for 3 min before resazurin addition (0%). Experiments were performed in technical triplicates and at least twice. Fluorescence microscopy Peptide internalization was evaluated by fluorescence microscopy. […] the cells and incubated for 6 h. […] All shown microscopy images are representative of at least two independent experiments. […] Resazurin based cell viability assay of HEK293 and HEK293_CMKLR1-eYFP cells after 72 h incubation with the p53/MDM2 inhibitor Nutlin-3a. […] 100 50 2Cy 3Cy 4Cy 0 -8 -7 -6 -5 -4 […]], log Figure S4. Resazurin based cell viability assay of HEK293_CMKLR1-eYFP cells after 72 h incubation with the PMIγ peptides discussed in this work. Mean ± SEM from two independent experiments performed in triplicates. 15 […]

[2] = test system: HEK293 cells stably expressing CMKLR1-eYFP; assay: Live cell fluorescence microscopy of peptide internalization, cells with CMKLR1; type: cell-based; settings: 1 μM Cy5-labeled peptide, 6 h, cells transfected with CMKLR1
Method: 2 Internalization of cyclic chemerin-9 conjugates. Live cell fluorescence microscopy of HEK293 and HEK293 cells stably expressed CMKLR1-eYFP. Cells were incubated with 1 μM Cy5-labeled peptide for 6 h before imaging. Blue = Hoechst33342, yellow = CMKLR1-eYFP, magenta = Cy5-peptide, scale bar ≙ 10 μm. […]
Salt Solution (HBSS, Biowest), pH 7.5) for 1 h. […]
Experiments were performed in technical duplicates and at least […]
HEK293 and HEK293_CMKLR1-eYFP cells were seeded at 15,000 cells per well into poly-ᴅ-lysine coated 96-well plates (black µCLEAR, Greiner). The next day, dilutions of the Cy5 -labeled peptides or Nutlin-3a […]
Cells were then washed and a resazurin-based cell viability […]
assay was performed. […]
Experiments […]
were performed in technical triplicates and at least twice.
Peptide internalization was evaluated by fluorescence microscopy. HEK293 and stably transfected […]
microscopy slides (ibidi). The next day, 1 µM Cy5-labeled peptides in cell culture medium were added to the cells and incubated for 6 h.
FluoroBriteTM DMEM (Gibco) with 10% FBS, 25 mM HEPES (pH 7.4) before imaging on an AxioVision Observer.Z1 microscope equipped with an apotome imaging system, an HXP120C light source, and a C-Apochromat 63x/1.20 W objective. All shown microscopy images are representative of at least two

[3] = test system: HEK293_CMKLR1-eYFP cells; assay: Fluorescence correlation spectroscopy (FCS) in the cytosol; settings: 72 h; for cytosolic concentration, median (IQR) / cytosolic concentration, mean ± SD: FCS at 22 °C
Method: (§1) 3 Quantification of Cy5-labeled peptides in the cytosol. (A) RP-HPLC (λex = 640 nm, λem = 670 nm) of cleavage products of Cy5-labeled peptides in the lysate of HEK293_CMKLR1-eYFP cells after incubation with 1 μM peptide for different durations. […] (B) Representative fluorescence correlation spectroscopy (FCS) autocorrelation curves of Cy5-labeled peptides measured in the cytosol of HEK293_CMKLR1-eYFP cells after 72 h of incubation. Measured curves were fitted with a model for hindered 3D diffusion and diffusion time t D and anomalous coefficient α were calculated from the fit. Autocorrelation data represent mean ± SD of up to 10 consecutive 5 s measurements in a single cell. (C) Intracellular concentrations of Cy5-labeled peptides after 72 h incubation calculated from the fitted autocorrelation curves obtained in HEK293_CMKLR1-eYFP, HMEC-1, and THP-1 cells. Each data point corresponds to FCS measurements from the cytosol of a single cell. Median with the interquartile range is shown. Data from three independent experiments. Statistical comparison by log-normal unpaired t test. ***p ≤ 0.001, **p ≤ 0.01, *p ≤ 0.05, ns – not significant. […] (D) Calculated diffusion coefficients from the fitted autocorrelation curves. Median with the interquartile range is shown. […]
(§2) Fluorescence correlation spectroscopy (FCS)
(§3) Cytosolic delivery was quantified by FCS as has been described previously.3–5 Stably transfected HEK293_CMKLR1-eYFP cells were seeded at 30,000 cells per well and HMEC-1 cells at 10,000 cells per well into poly-ᴅ-lysine-coated 8-well microscopy slides (ibidi) in their respective cell culture medium. THP-1 cells were resuspended in fresh cell culture medium at 100,000 cells/mL in 500 µL cell culture medium in uncoated 12-well plates. The next day, dilutions of Cy5-labeled peptides were added to the cells and incubated for 72 h. Cell membranes of HMEC-1 and THP-1 cells were stained with 20 µg/mL Alexa Fluor 488-labeled concanavalin A (Invitrogen) for 20 min to enable identification of the cytosol. Nuclei were counterstained with Hoechst33342, and cells were washed with FluoroBriteTM DMEM (Gibco) + 25 mM HEPES (pH 7.4). After washing, THP-1 cells were transferred to poly-ᴅ-lysine-coated 8-well microscopy slides and allowed to sediment and adhere for 1 h. Confocal imaging and FCS were performed at 22 °C on a TCS SP8 FALCON microscope (Leica) with a Plan-Apochromat 40x/1,10 water immersion objective and HyD single molecule detector (Leica). The 638 nm laser line was used for excitation at 0.5% power and […]

[4] = test system: HMEC-1 cells; assay: as above; settings: HMEC-1, applied concentration 1000 nM, 72 h; for cytosolic concentration, mean ± SD: FCS at 22 °C
Method: as §1, §2, §3

[5] = test system: THP-1 cells; assay: as above; settings: THP-1, applied concentration 1000 nM, 72 h; for cytosolic concentration, mean ± SD: FCS at 22 °C
Method: as §1, §2, §3

[6] = applied concentration 10 nM, single cells, three independent experiments
[7] = applied concentration 1000 nM (1 μM)
[8] = applied concentration 10000 nM (10 μM)

I: GSVSHHHHHHGGHHHH[PEG3][dK]([PEG3-X1])[dD][dW][dW][dP][dL][dA][dF][dE][dA][dL][dL][dR]GEV[Cit][PEG3][Pra]-NH2 / II: Ac-[Lys(N3)]YFP[d(hCys)]QFAFC-OH (triazole I:36-II:1; disulfide II:5-II:10) [3Cy]
cytotoxicity [1]: tolerated slightly worse at concentrations above 1 μM
internalization [2]: internalized efficiently
cellular stress ([3]; 10 μM, data not shown): showed signs of cellular stress
cytosolic concentration, median (IQR) ([3]; applied concentration 10 nM): 5.5 (3.2–9.5) nM
cytosolic concentration, mean ± SD [3, 6]: 6.6 ± 5.0 nM
cytosolic concentration, mean ± SD ([3]; applied concentration 100 nM): 23.5 ± 40.2 nM
cytosolic concentration, median (IQR) ([3]; applied concentration 100 nM): 10.2 (5.2–32.1) nM
cytosolic concentration, median (IQR) [3, 7]: 98.8 nM
cytosolic concentration, mean ± SD ([3]; applied concentration 1000 nM): 138 ± 122 nM
cytosolic concentration, median (IQR) [3, 8]: 228 nM
cytosolic concentration, mean ± SD ([3]; applied concentration 10000 nM): 308 ± 257 nM
cytosolic concentration, median (IQR) [4]: 7.0 (5.2–12.4) nM
cytosolic concentration, mean ± SD [4]: 20.1 ± 57.2 nM
cytosolic concentration, median (IQR) [5]: 22.6 (12.7–38.5) nM
cytosolic concentration, mean ± SD [5]: 40.3 ± 77.12 nM

CC(=O)N[C@@H](CCCCn1cc(C[C@H](NC(=O)CCOCCOCCOCCNC(=O)[C@H](CCCNC(N)=O)NC(=O)[C@@H](NC(=O)[C@H](CCC(=O)O)NC(=O)CNC(=O)CNC(=O)[C@@H](CCCNC(=N)N)NC(=O)[C@@H](CC(C)C)NC(=O)[C@@H](CC(C)C)NC(=O)[C@@H](C)NC(=O)[C@@H](CCC(=O)O)NC(=O)[C@@H](Cc2ccccc2)NC(=O)[C@@H](C)NC(=O)[C@@H](CC(C)C)NC(=O)[C@H]2CCCN2C(=O)[C@@H](Cc2c[nH]c3ccccc23)NC(=O)[C@@H](Cc2c[nH]c3ccccc23)NC(=O)[C@@H](CC(=O)O)NC(=O)CCOCCOCCOCCNC(=O)CCCCC[N+]2=C(/C=C/C=C/C=C3N(C)c4ccc(S(=O)(=O)O)cc4C3(C)C)C(C)(C)c3cc(S(=O)(=O)[O-])ccc32)C(C)C)C(N)=O)nn1)C(=O)N[C@@H](Cc1ccc(O)cc1)C(=O)N[C@@H](Cc1ccccc1)C(=O)N1CCC[C@H]1C(=O)N[C@@H]1CCSSC[C@@H](C(=O)O)NC(=O)[C@H](Cc2ccccc2)NC(=O)[C@H](C)NC(=O)[C@H](Cc2ccccc2)NC(=O)[C@H](CCC(N)=O)NC1=O [2Cy] (I: {X2-PEG3}-[dD][dW][dW][dP][dL][dA][dF][dE][dA][dL][dL][dR]GGEV[Cit][PEG3][Pra]-NH2 / II: Ac-[Lys(N3)]YFP[d(hCys)]QFAFC-OH; triazole I:19-II:1; disulfide II:5-II:10)
cytotoxicity [1]: no signs of cytotoxicity
internalization [2]: internalized efficiently
cytosolic concentration, median (IQR) ([3]; applied concentration 10 nM): 6.2 (3.1–9.1) nM
cytosolic concentration, mean ± SD [3, 6]: 8.4 ± 7.8 nM
cytosolic concentration, mean ± SD ([3]; applied concentration 100 nM): 11.6 ± 14.6 nM
cytosolic concentration, median (IQR) ([3]; applied concentration 100 nM): 6.8 (3.3–13.0) nM
cytosolic concentration, median (IQR) [3, 7]: 43.1 (19.0–99.4) nM
cytosolic concentration, mean ± SD ([3]; applied concentration 1000 nM): 78.6 ± 83.2 nM
cytosolic concentration, median (IQR) [3, 8]: 106 nM
cytosolic concentration, mean ± SD ([3]; applied concentration 10000 nM): 161 ± 128 nM
cytosolic concentration, median (IQR) [4]: 6.4 (3.7–9.3) nM
cytosolic concentration, mean ± SD [4]: 7.8 ± 5.4 nM
cytosolic concentration, median (IQR) [5]: 14.0 (7.1–26.6) nM
cytosolic concentration, mean ± SD [5]: 22.7 ± 25.1 nM
